Source: ChEMBL document CHEMBL3885861, “Open TG-GATES”

Species on record: Rattus norvegicus
Test: Open TG-GATES - Regimen: Daily Repeat
Format: toxicity, organism-based, Sprague-Dawley
Design: regimen Daily Repeat, gender Male, age 6 weeks
Conditions: in vivo, po, 100 mg/kg, route gavage, dose level High; for APTT / Bas / Eos / Fbg / Hb / Ht / Lym / MCHC / MCV / Mono / Neu / PT / Plat / RBC / Ret / WBC: tissue Blood; for KIDNEY_L / KIDNEY_R / KIDNEY_TOTAL: tissue Kidney; for LIVER: tissue Liver; for ALP / ALT / AST / BUN / CRE / Ca / Cl / DBIL / GLC / IP / K / LDH / Na / PL / RALB / TBIL / TC / TG / TP / gamma-GTP: tissue Plasma

## CS(=O)(=O)Nc1ccc([N+](=O)[O-])cc1Oc1ccccc1 [NIMESULIDE]
72 h, time 3 day
  TERMINAL_BW: 201.1 g
  APTT: 17.3 s
  Bas: 0%
  Eos: 1.4%
  Fbg: 222 mg/dL
  Hb: 14.1 g/dL
  Ht: 41.6%
  Lym: 66.8%
  MCHC: 34%
  MCV: 64.1 fL
  Mono: 8.6%
  Neu: 22.8%
  PT: 11.6 s
  Plat: 113.5 x10_4/uL
  RBC: 649.4 x10_4/ul
  Ret: 6.7%
  WBC: 100.9 x10_2/uL
  KIDNEY_L: 0.9 g
  KIDNEY_R: 0.9 g
  KIDNEY_TOTAL: 1.9 g
  LIVER: 10.5 g
  ALP: 841.4 IU/L
  ALT: 37.4 IU/L
  AST: 63.8 IU/L
  BUN: 21.8 mg/dL
  CRE: 0.5 mg/dL
  Ca: 10.9 mg/dL
  Cl: 105 meq/L
  DBIL: 0.06 mg/dL
  GLC: 178.2 mg/dL
  IP: 6.7 mg/dL
  K: 4.4 meq/L
  LDH: 97.2 IU/L
  Na: 141.4 meq/L
  PL: 168.2 mg/dL
  RALB: 4.1 g/dL
  TBIL: 0.3 mg/dL
  TC: 91.2 mg/dL
  TG: 60.6 mg/dL
  TP: 5.6 g/dL
  gamma-GTP: 1.8 IU/L
[…], time 7 day
  TERMINAL_BW: 235.6 g
  APTT: 19.1 s
  Bas: 0%
  Eos: 1.2%
  Fbg: 275.5 mg/dL
  Hb: 13.3 g/dL
  Ht: 39.3%
  Lym: 62.5%
  MCHC: 33.7%
  MCV: 63 fL
  Mono: 6.2%
  Neu: 30.2%
  PT: 11.2 s
  Plat: 135.9 x10_4/uL
  RBC: 624.5 x10_4/ul
  Ret: 11.2%
  WBC: 138.2 x10_2/uL
  KIDNEY_L: 1.1 g
  KIDNEY_R: 1.1 g
  KIDNEY_TOTAL: 2.2 g
  LIVER: 12.7 g
  ALP: 860.8 IU/L
  ALT: 32.2 IU/L
  AST: 63.2 IU/L
  BUN: 20 mg/dL
  CRE: 0.6 mg/dL
  Ca: 10.9 mg/dL
  Cl: 105.5 meq/L
  DBIL: 0.0275 mg/dL
  GLC: 199.5 mg/dL
  IP: 6.6 mg/dL
  K: 4.4 meq/L
  LDH: 75.8 IU/L
  Na: 141.2 meq/L
  PL: 166.8 mg/dL
  RALB: 4 g/dL
  TBIL: 0.4 mg/dL
  TC: 92 mg/dL
  TG: 68.5 mg/dL
  TP: 6 g/dL
  gamma-GTP: 1.5 IU/L
[…], time 14 day
  TERMINAL_BW: 287.5 g
  APTT: 17.7 s
  Bas: 0%
  Eos: 1.4%
  Fbg: 250.2 mg/dL
  Hb: 13.6 g/dL
  Ht: 39.4%
  Lym: 55.8%
  MCHC: 34.4%
  MCV: 65.7 fL
  Mono: 9.8%
  Neu: 32.8%
  PT: 11.6 s
  Plat: 141.2 x10_4/uL
  RBC: 605 x10_4/ul
  Ret: 14%
  WBC: 143.9 x10_2/uL
  KIDNEY_L: 1.2 g
  KIDNEY_R: 1.3 g
  KIDNEY_TOTAL: 2.5 g
  LIVER: 16.1 g
  ALP: 842 IU/L
  ALT: 31.4 IU/L
  AST: 60.8 IU/L
  BUN: 24.6 mg/dL
  CRE: 0.6 mg/dL
  Ca: 10.7 mg/dL
  Cl: 105.4 meq/L
  DBIL: 0.008 mg/dL
  GLC: 184.8 mg/dL
  IP: 7 mg/dL
  K: 4.5 meq/L
  LDH: 79.8 IU/L
  Na: 141.6 meq/L
  PL: 171 mg/dL
  RALB: 4 g/dL
  TBIL: 0.4 mg/dL
  TC: 90.4 mg/dL
  TG: 98.8 mg/dL
  TP: 5.9 g/dL
  gamma-GTP: 2.2 IU/L
[…], time 28 day
  TERMINAL_BW: 332.9 g
  APTT: 18.9 s
  Bas: 0%
  Eos: 1.4%
  Fbg: 235.2 mg/dL
  Hb: 15.4 g/dL
  Ht: 45.6%
  Lym: 71.8%
  MCHC: 33.7%
  MCV: 59.4 fL
  Mono: 8%
  Neu: 19.2%
  PT: 11.9 s
  Plat: 118.9 x10_4/uL
  RBC: 769.2 x10_4/ul
  Ret: 4%
  WBC: 126.2 x10_2/uL
  KIDNEY_L: 1.3 g
  KIDNEY_R: 1.3 g
  KIDNEY_TOTAL: 2.6 g
  LIVER: 17 g
  ALP: 656.6 IU/L
  ALT: 27.6 IU/L
  AST: 57.8 IU/L
  BUN: 24 mg/dL
  CRE: 0.6 mg/dL
  Ca: 10.9 mg/dL
  Cl: 107.4 meq/L
  DBIL: 0.018 mg/dL
  GLC: 180.6 mg/dL
  IP: 6.8 mg/dL
  K: 4.5 meq/L
  LDH: 71.2 IU/L
  Na: 144.4 meq/L
  PL: 182.2 mg/dL
  RALB: 4.2 g/dL
  TBIL: 0.4 mg/dL
  TC: 100.4 mg/dL
  TG: 102.6 mg/dL
  TP: 6.2 g/dL
  gamma-GTP: 1.6 IU/L
